# Measured values from patent US20140357512A1, “HISTONE DEACETYLASE (HDAC) BIOMARKERS IN MULTIPLE MYELOMA” (priority 2013, published 2014).
# Test system: human myeloma cell line MM.1S
# Assay: SILAC acetylated-lysine peptide profiling, HDAC inhibitor vs DMSO (light/heavy ratio)
# Assay type: cell-based
# Description: An embodiment of the invention comprises utilizing the SILAC method in order to quantitate changes in protein expression between two or more populations of cells. The SILAC method is a technique based on mass spectrometry that detects differences in protein abundance among samples using non-radioactive isotopic labeling. The SILAC method is known in the art, and described in detail in Ong et al., “Stable Isotope Labeling by Amino Acids in Cell Culture, SILAC, as a Simple and Accurate Approach to Expression Proteomics”, Molecular & Cellular Proteomics, vol. 1, pp. 376-386 (2002), which is incorporated herein by reference in its entirety.
# Briefly, the SILAC method involves growing two populations of cells in cell culture. The first population of cells is grown in growth media containing normal amino acids (“normal media”). The second population of cells is grown in media lacking a standard essential amino acid (such as lysine), but is then supplemented with a non-radioactive, isotopically labeled form of that essential amino acid (such as lysine labeled with ^13C atoms, rather than normal ^12C atoms), which is called “heavy media”. When the two populations of cells are each growing in the medium, they incorporate the amino acids into all of their proteins. The growth of cells maintained in the heavy media is no different from that in normal media. All peptides containing the heavy amino acids are heavier than their normal counterparts. The cells from each of the two populations of cells are lysed. The lysates from each of the two cell populations are then combined. The combined cell lysates are then analyzed by mass spectrometry. Pairs of chemically identical peptides of different stable isotope composition can be differentiated in a mass spectrometer due to their difference in mass. The ratio of peak intensities in the mass spectrum for such peptide pairs reflects the abundance ratio for the two proteins.
# This example describes SILAC studies that were performed to compare the effects of three different HDAC inhibitors (Compound A, Compound B, and tubastatin A) to a control on a human multiple myeloma cell line. The HDAC inhibitors were also compared amongst themselves to determine differences in their effects.
# A human myeloma cell line MM.1S was grown using either ^12C (light) or ^13C (heavy) lysine containing culture medium. The “heavy” cells were treated with DMSO as the control, and the “light” cells were treated with a single HDAC inhibitor at 37° C. for 6 hours. The heavy and light cells were lysed, and the lysates were mixed in 1:1 ratio and digested with the protease trypsin. The acetylated lysine containing peptides (due to the action of the HDAC inhibitor) in the digested peptide pool were captured by a non-specific anti-acetylated lysine antibody cocktail (the antibodies identify both light and heavy acetylated peptides), and subjected to mass spectrometry analysis in order to identify thousands of individual peptides.
# Thousands of peptides were identified in pairs (^12C and ^13C) due to their known mass differences. The amino acid sequence and quantitative ratio (Light/Heavy) of a given peptide in two differentially treated cell lysates were then determined and annotated with their possible protein (gene) sources.
# As stated above, three HDAC inhibitors (Compound A, Compound B, and Tubastatin A) were used. Thus, the SILAC method was performed three times, with a different HDAC inhibitor compared to a control each time. Accordingly, there are three pairs of quantitative data in the table below, i.e., Compound A:DMSO, Compound B:DMSO, and Tubastatin A:DMSO. A cut-off of 1.30 fold of change (increase or decrease) was then used to determine “changed” or “+” in the table, and any peptides with a fold of change less than 1.3 fold were determined to be “unchanged” or “0” in the table. Those peptides that were not identified were marked as “NA” in the table. […]
smiles,measurement,setting,value
"O=C(NO)c1cnc(NC2(c3cccc(F)c3)CCCCC2)nc1 [Compound B, 2-((1-(3-fluorophenyl)cyclohexyl)amino)-N-hydroxypyrimidine-5-carboxamide]",light to heavy ratio (L/H ratio) of acetylated peptide TNFSNEK(ac)TISK (SEQ ID NO: 357),"Acylphosphatase-2 [113], ACYP2, drug:DMSO",0.84 log 2
same,"light to heavy ratio (L/H ratio), log 2 scale, acetylated peptide SELTGK(ac)FEK (SEQ ID NO: 778)","Annexin A5 [76], gene ANXA5, drug:DMSO",0.00
same,light to heavy ratio (L/H ratio) of acetylated peptide TKYEK(ac)SLYSMIK (SEQ ID NO: 270),"Annexin A6 [299], ANXA6, drug:DMSO",0.00 log 2
same,light to heavy ratio (L/H ratio) of acetylated peptide AINEAYK(ac)EDYHK (SEQ ID NO: 282),"Annexin A6 [478], ANXA6, drug:DMSO",0.00 log 2
same,light to heavy ratio (L/H ratio) of acetylated peptide NKPLFFADK(ac)LYK (SEQ ID NO: 298),"Annexin A6 [607], ANXA6, drug:DMSO",0.00 log 2
same,light to heavy ratio (L/H ratio) of acetylated peptide GAGTDEK(ac)TLTR (SEQ ID NO: 621),"Annexin A6 [620], gene ANXA6, inhibitor:DMSO",0.00 log 2
same,"light to heavy ratio (L/H ratio), log 2 scale, acetylated peptide EFIEK(ac)YDK (SEQ ID NO: 779)","Annexin A6 [644], gene ANXA6, drug:DMSO",0.00
same,light to heavy ratio (L/H ratio) of acetylated peptide DDNGK(ac)PYVLPSVR (SEQ ID NO: 579),"Aspartate aminotransferase mitochondrial [73], gene GOT2, inhibitor:DMSO",0.00 log 2
same,light to heavy ratio (L/H ratio) of acetylated peptide LVGELK(ac)LDR (SEQ ID NO: 367),"Bactericidal/permeability-increasing protein [237], BPI, drug:DMSO",−0.52 log 2
same,light to heavy ratio (L/H ratio) of acetylated peptide ELK(ac)EIQYGIR (SEQ ID NO: 540),"Branched-chain-amino-acid aminotransferase [337], gene BCAT2, inhibitor:DMSO",0.00 log 2
same,L/H ratio of acetylated peptide FYGDEEK(ac)[…] (SEQ ID NO: 25),"CALR [62], log 2 scale, drug vs DMSO",0.00
same,light to heavy ratio (L/H ratio) of acetylated peptide AGLQVYNK(ac)CWK (SEQ ID NO: 260),"CD59 glycoprotein [63], CD59, drug:DMSO",0.00 log 2
same,L/H ratio of acetylated peptide,"CHAFEK(ac)[…] (SEQ ID NO: 425), NADH dehydrogenase [ubiquinone] iron-sulfur protein 5 [38], NDUFS5",−0.63 log 2
same,L/H ratio of acetylated peptide […](ac)R (SEQ ID NO: 26),"CLTC [637], log 2 scale, drug vs DMSO",0.00
same,L/H ratio of acetylated peptide FK(ac)ESFAEMNR (SEQ ID NO: 1),"COX4I1 [87], log 2 scale, drug vs DMSO",−0.67
same,L/H ratio of acetylated peptide […](ac)QLCTIPR (SEQ ID NO: 27),"CREBBP [1216], log 2 scale, drug vs DMSO",0.00
same,L/H ratio of acetylated peptide TNK(ac)NK(ac)SSISR (SEQ ID NO: 13),"CREBBP [1595:1597], log 2 scale, drug vs DMSO",0.62
same,L/H ratio of acetylated peptide ALK(ac)DLYCHK (SEQ ID NO: 28),"CREM [240], log 2 scale, drug vs DMSO",0.00
same,L/H ratio of acetylated peptide LYCPK(ac)CMDVYTPK (SEQ ID NO: 29),"CSNK2B [139], log 2 scale, drug vs DMSO",0.00
same,light to heavy ratio (L/H ratio) of acetylated peptide NSFDCFK(ac)K (SEQ ID NO: 605),"Calcium-binding mitochondrial carrier protein Aralar2 [379], gene SLC25A13, inhibitor:DMSO",0.00 log 2
same,light to heavy ratio (L/H ratio) of acetylated peptide FVLSSGK(ac)FYGDEEKDK (SEQ ID NO: 281),"Calreticulin [55], CALR, drug:DMSO",0.00 log 2
same,light to heavy ratio (L/H ratio) of acetylated peptide NVLINK(ac)DIR (SEQ ID NO: 257),"Calreticulin [159], CALR, drug:DMSO",0.00 log 2
same,light to heavy ratio (L/H ratio) of acetylated peptide […](ac)GLLK (SEQ ID NO: 569),"Chloride intracellular channel protein 1 [131], gene CLIC1, inhibitor:DMSO",0.00 log 2
same,light to heavy ratio (L/H ratio) of acetylated peptide SMSTEGLMK(ac)FVDSK (SEQ ID NO: 330),"Citrate synthase mitochondrial [459], CS, drug:DMSO",0.76 log 2
same,"light to heavy ratio (L/H ratio), log 2 scale, acetylated peptide MIYASSK(ac)DAIKK (SEQ ID NO: 763)","Cofilin-1 [121], gene CFL1, drug:DMSO",0.00
same,light to heavy ratio (L/H ratio) of acetylated peptide AAEEVEAK(ac)FK (SEQ ID NO: 328),"Coiled-coil-helix-coiled-coil-helix domain-containing protein 3 mitochondrial [173], CHCHD3, drug:DMSO",−0.42 log 2
same,light to heavy ratio (L/H ratio) of acetylated peptide ASEIGEK(ac)YR (SEQ ID NO: 586),"Conserved hypothetical protein [484], gene KIAA0947, inhibitor:DMSO",0.00 log 2
same,light to heavy ratio (L/H ratio) of acetylated peptide DHCVAHK(ac)LFNNLK (SEQ ID NO: 608),"Cytochrome b-c1 complex subunit 6 mitochondrial [85], gene UQCRH, inhibitor:DMSO",0.00 log 2
same,light to heavy ratio (L/H ratio) of acetylated peptide YFDEK(ac)IAK (SEQ ID NO: 563),"D-beta-hydroxybutyrate dehydrogenase mitochondrial [280], gene BDH1, inhibitor:DMSO",0.00 log 2
same,L/H ratio of acetylated peptide FK(ac)[…] (SEQ ID NO: 30),"DAZAP1 [59], log 2 scale, drug vs DMSO",0.00
same,L/H ratio of acetylated peptide APTIVGK(ac)SSLNPILFR (SEQ ID NO: 31),"DDOST [189], log 2 scale, drug vs DMSO",0.00
same,L/H ratio of acetylated peptide DWVLNEFK(ac)HGK (SEQ ID NO: 33),"DDX5 [388], log 2 scale, drug vs DMSO",0.00
